Measured values taken from patent US12024721B2, “Method of differentiating human pluripotent stem cells to podocytes” (Wisconsin Alumni Research Foundation, priority 2017, dated 2024).

What was measured:
[1] = system: IMR90-4 iPSC-derived podocytes; assay: Apoptosis assay: dead cells by trypan blue after TGF-β1; type: cell-based, human; settings: 5 or 50 ng/mL, 24 hr, day 16 podocytes; control 2%
Description: (§1) At day 16, cells were treated with 500 ng/mL Ang II for 6 hr and phalloidin staining was used to assess changes in cytoskeletal structure. White arrows indicate the cells with peripheral F-actin. (B) More than 200 cells over 15 images were analyzed and the percentage of cells with peripherally-organized actin was calculated for control and Ang II-treated cells. Data are presented as mean percentage±SEM of three independent experiments over 15 images. Scale bars, 100 μm. (C) At day 16, cells were treated with 5 ng/mL and 50 ng/mL TGF-β1 for 24 hr. Detached cells were collected from the medium and combined with Accutase®-dissociated cells from the substrate. Cells were treated with trypan blue and the numbers of cells incorporating and excluding trypan blue were counted on a hemocytometer. Percentage of dead cells was calculated as the number of cells that incorporated trypan blue divided by the total cell number. […]
(§2) Podocytes uptake albumin via endocytosis and degrade albumin in lysosomes^52,53. We assessed the ability of day 16 iPSC-derived podocytes to endocytose Alexa Fluor 555-labeled albumin in a temperature-dependent manner. […]
(§3) Differentiated podocytes at day 16 were treated with 500 ng/ml Ang II for 6 hr or […] TGF-β1 for 24 hr. […] The cells treated with TGF-β1 after 24 hr were assessed by counting dead cells with trypan blue exclusion.

[2] = system: IMR90-4 hPSCs; assay: WT1 expression at day 6 by Western blot after treatment with BMP7, RA, FGF2 from day 2 to day 6; type: cell-based, human; settings: treatment day 2 to day 6 in PM2
Description: FIGS. 3A-3L Wnt signaling activation alone is sufficient to differentiate hPSCs into nephron progenitor cells. (A) Schematic of podocyte differentiation factor identification. Singularized IMR90-4 hPSCs were seeded on 12-well plates coated with Matrigel®, Synthemax® or vitronectin and expanded for 3 days in mTeSR®1. Podocyte differentiation was initiated with treatment using 6 μM CHIR (CHIR99021) for 48 h in PM1 followed by treatment with different combinations of 0.1 μM or 1 μM RA, 50 ng/mL BMP7 and 50 ng/mL FGF2 from day 2 to day 6 in PM2. (B) Cells at day 6 were assessed by Western blot for the expression level of WT1. (C) Expression level was quantified via Image J. The expression was first normalized to β-actin and then compared to WT1 expression in the absence of FGF2, RA and BMP7. (D, E) Expression of phosphorylated SMAD was assessed by Western blot after cells were treated with dorsomorphin (0 μM to 10 μM) from day 1 to day 3 or from day 3 to day 4. (F, G) Expression of BMP7 at day 1 and day 2 was verified by immunofluorescence and Western blot of cell lysate. (H, I) Cells were differentiated in the presence or absence of 1 μM dorsomorphin treatment from day 1 to day 3 and at day 16 were assessed for expression of PAX2 and WT1 by flow cytometry. Data were collected from three independent replicates and are plotted as mean±SEM. *p<0.05. ***p<0.001. […]

[3] = system: IMR90-4 iPSC-derived podocytes; assay: Contractility assay: actin reorganization (phalloidin staining) after Ang II; type: cell-based, human; settings: 500 ng/mL, 6 hr, day 16 podocytes; control about 20%
Description: as §1, §2, §3

[4] = system: hPSCs; settings: 6 μM, undifferentiated hPSCs, serum-free and albumin-free medium, after 24 hours; cited from earlier work
[5] = system: hPSCs; assay: Primitive streak induction of hPSCs by Wnt activation (brachyury immunofluorescence / flow cytometry); type: cell-based, human
Description: Thus, as a first step toward differentiating hPSCs into podocytes, induced hPSCs (iPSCs) were seeded on a Matrigel®-coated surface at a density of ˜2×10^4 cells/cm^2 in mTeSR®1. After 3 days of expansion to a density of 6×10^4 cells/cm^2, the hPSCs were treated with 6 μM CHIR99201 for 48 hr in serum-free and albumin-free podocyte medium 1 (PM1: DMEM/F12, 1% MEM-NEAA, 0.5% GlutaMAX, 0.1 mM β-mercaptoethanol) (FIG. 1A). […] After 48 hr CHIR99201 treatment in PM1, the medium was switched to serum-free podocyte medium 2 (PM2: human endothelial serum-free medium (hESFM), 2% B-27®) and cultured to day 16. The kinetics of primitive streak induction were assessed by immunofluorescence and qRT-PCR. […] At day 0, differentiation was initiated by treating cells with 6 μM CHIR99021 (Selleckchem) in podocyte medium 1 (PM1): DMEM/Ham's F12 (Thermo Fisher), 100×MEM nonessential amino acids (Thermo Fisher), 200× GlutaMAX (Thermo Fisher), and 0.1 mM β-mercaptoethanol (Sigma) for 2 days. After 48 hr, medium was changed to podocyte medium 2 (PM2): human Endothelial Serum-Free Medium (hESFM) (Thermo Fisher) supplemented with 50× B-27®. […] Cells were stained with primary and secondary antibodies diluted in 0.5% BSA plus 0.1% Triton-X 100 as described.^34 Data were collected on a FACS Caliber flow cytometer (Beckton Dickinson) and analyzed using FlowJo®. […]

[6] = system: BMP-induced SMAD1/5/8 phosphorylation; assay: Phosphorylated SMAD Western blot after dorsomorphin treatment of differentiating cells; type: cell-based, human; settings: added from days 1-3 of differentiation; P-SMAD at day 3; 0 to 10 μM tested
Description: Singularized IMR90-4 hPSCs were seeded on 12-well plates coated with Matrigel®, Synthemax® or vitronectin and expanded for 3 days in mTeSR®1. Podocyte differentiation was initiated with treatment using 6 μM CHIR (CHIR99021) for 48 h in PM1 followed by treatment with different combinations of 0.1 μM or 1 μM RA, 50 ng/mL BMP7 and 50 ng/mL FGF2 from day 2 to day 6 in PM2. […] (D, E) Expression of phosphorylated SMAD was assessed by Western blot after cells were treated with dorsomorphin (0 μM to 10 μM) from day 1 to day 3 or from day 3 to day 4. […] Data were collected from three independent replicates and are plotted as mean±SEM. *p<0.05. ***p<0.001. […] Cells were dissociated with Accutase® and rinsed with PBS twice before being lysed with RIPA (ROCKLAND) in the presence of 1% Halt Protease and Phosphatase Inhibitor Cocktail (Pierce). Protein concentration was determined by a BCA assay kit (Thermo Fisher) according to manufacturer's instructions. Samples containing 30 μg of total protein were loaded onto pre-cast 10% Tris-Glycine SDS/PAGE gels (Invitrogen) under denaturing conditions and transferred to a nitrocellulose membrane. After blocking with 5% non-fat milk in TBST, the membrane was incubated with primary antibody (Table 1) overnight at 4° C. […]

## TGF-β1: induces cell death in primary and immortalized podocytes
[1]
  percentage of dead cells (trypan blue uptake): 15%

## FGF2: fibroblast growth factor, exogenous growth factor
[2]
  effect on WT1 expression in the hPSC-derived podocytes: diminished

## angiotensin II [Ang II, induces podocyte damage by altering cytoskeletal structure and inducing contractility]
[3]
  percentage of cells with peripheral actin: Over 50%

## Cc1c[nH]c(-c2cnc(NCCNc3ccc(C#N)cn3)nc2-c2ccc(Cl)cc2Cl)n1 [CHIR99021]
[4]
  population expressing primitive streak markers (prior study): uniform population of cells expressing primitive streak markers
[5]; 6 μM alone, podocyte permissive medium, three different hPSC lines
  ability alone to direct hPSC lines into intermediate mesoderm, nephron progenitors and mature podocytes: sufficient
[5]; 6 μM, 24 hr treatment, PM1, iPSCs on Matrigel
  cells expressing the primitive streak marker brachyury (positive population): ~100%

## c1cc(-c2cnn3cc(-c4ccc(OCCN5CCCCC5)cc4)cnc23)ccn1 [dorsomorphin]
[6]
  dorsomorphin concentration at which SMAD phosphorylation was completely inhibited: higher than 5 μM

B1: BMP7: bone morphogenetic protein, exogenous growth factor (protein, UniProt P18075 293-431, looked up)
Bone morphogenetic protein 7: STGSKQRSQNRSKTPKNQEALRMANVAENSSSDQRQACKKHELYVSFRDLGWQDWIIAPEGYAAYYCEGECAFPLNSYMNATNHAIVQTLVHFINPETVPKPCCAPTQLNAISVLYFDDSSNVILKKYRNMVVRACGCH
[2]
  effect on WT1 expression in the hPSC-derived podocytes: diminished
